Publication PMC4447944 (The Journal of Biological Chemistry, 2015)
pIC50: −log10 of the molar value.

Assays:
hACVR1B = target: T1, hACVR1B (Homo sapiens, UniProt P36896); experiment: KINOMEscan; assay type: binding
T1 construct: purchased DiscoverX (KINOMEscan platform)

hALK(L1196M) = target: T2, hALK(L1196M) (Homo sapiens, UniProt Q9UM73, L1196M); experiment: KINOMEscan; assay type: binding
T2 construct: purchased DiscoverX

hASK2 = target: T3, hASK2 (Homo sapiens, UniProt O95382); experiment: KINOMEscan; assay type: binding
T3 construct: purchased DiscoverX

hAXL = target: T4, hAXL (Homo sapiens, UniProt P30530); experiment: KINOMEscan; assay type: binding
T4 construct: purchased DiscoverX

hBIKE = target: T5, hBIKE (Homo sapiens, UniProt Q9NSY1); experiment: KINOMEscan; assay type: binding
T5 construct: purchased DiscoverX

hCAMK1 = target: T6, hCAMK1 (Homo sapiens, UniProt Q14012); experiment: KINOMEscan; assay type: binding
T6 construct: purchased DiscoverX

hCSNK1E = target: T7, hCSNK1E (Homo sapiens, UniProt P49674); experiment: KINOMEscan; assay type: binding
T7 construct: purchased DiscoverX (KINOMEscan platform)

hCSNK2A2 = target: T8, hCSNK2A2 (Homo sapiens, UniProt P19784); experiment: KINOMEscan; assay type: binding
T8 construct: purchased DiscoverX (KINOMEscan platform)

hEGFR(G719S) = target: T9, hEGFR(G719S) (Homo sapiens, UniProt P00533, G719S); experiment: KINOMEscan; assay type: binding
T9 construct: purchased DiscoverX

hEGFR(L747-T751del,Sins) = hEGFR(L747-T751del,Sins) (Homo sapiens, UniProt P00533, DEL747-751/INS746S); experiment: KINOMEscan; assay type: binding
hEPHA1 = target: T10, hEPHA1 (Homo sapiens, UniProt P21709); experiment: KINOMEscan; assay type: binding
T10 construct: purchased DiscoverX

hERBB3 = target: T11, hERBB3 (Homo sapiens, UniProt P21860); experiment: KINOMEscan; assay type: binding
T11 construct: purchased DiscoverX

hERK5 = target: T12, hERK5 (Homo sapiens, UniProt Q13164); experiment: KINOMEscan; assay type: binding
T12 construct: purchased DiscoverX

hGAK = target: T13, hGAK (Homo sapiens, UniProt O14976); experiment: KINOMEscan; assay type: binding
T13 construct: purchased DiscoverX

hGRK7 = target: T14, hGRK7 (Homo sapiens, UniProt Q8WTQ7); experiment: KINOMEscan; assay type: binding
T14 construct: purchased DiscoverX

hINSR = target: T15, hINSR (Homo sapiens, UniProt P06213); experiment: KINOMEscan; assay type: binding
T15 construct: purchased DiscoverX (KINOMEscan panel)

hKIT(A829P) = target: T16, hKIT(A829P) (Homo sapiens, UniProt P10721, A829P); experiment: KINOMEscan; assay type: binding
T16 construct: purchased DiscoverX (KINOMEscan panel)

hSBK1 = target: T17, hSBK1 (Homo sapiens, UniProt Q52WX2); experiment: KINOMEscan; assay type: binding
T17 construct: purchased DiscoverX (KINOMEscan platform)

hTAK1 = target: T18, hTAK1 (Homo sapiens, UniProt O43318); experiment: KINOMEscan; assay type: binding
T18 construct: purchased DiscoverX

hTAOK2 = target: T19, hTAOK2 (Homo sapiens, UniProt Q9UL54); experiment: KINOMEscan; assay type: binding
T19 construct: purchased DiscoverX

hTIE2 = target: T20, hTIE2 (Homo sapiens, UniProt Q02763); experiment: KINOMEscan; assay type: binding
T20 construct: purchased DiscoverX

hWNK3 = target: T21, hWNK3 (Homo sapiens, UniProt Q9BYP7); experiment: KINOMEscan; assay type: binding
T21 construct: purchased DiscoverX

hPPARδ = target: T22, hPPARδ (Homo sapiens, UniProt Q03181); experiment: Nuclear hormone receptor assay (Eurofins-CEREP); conditions: read-out: Relative IC50
T22 construct: Eurofins-CEREP

CYP2D6 = target: T23, CYP2D6 (Homo sapiens, UniProt P10635); experiment: Cytochrome p450 inhibition (Eurofins-CEREP); assay type: in vitro ADME
T23 construct: Eurofins-CEREP

hADRα2A = target: T24, hADRα2A (Homo sapiens, UniProt P08913); experiment: cAMP Agonist (Eurofins-CEREP); conditions: @ 10 μM
T24 sequence (P08913 1-465): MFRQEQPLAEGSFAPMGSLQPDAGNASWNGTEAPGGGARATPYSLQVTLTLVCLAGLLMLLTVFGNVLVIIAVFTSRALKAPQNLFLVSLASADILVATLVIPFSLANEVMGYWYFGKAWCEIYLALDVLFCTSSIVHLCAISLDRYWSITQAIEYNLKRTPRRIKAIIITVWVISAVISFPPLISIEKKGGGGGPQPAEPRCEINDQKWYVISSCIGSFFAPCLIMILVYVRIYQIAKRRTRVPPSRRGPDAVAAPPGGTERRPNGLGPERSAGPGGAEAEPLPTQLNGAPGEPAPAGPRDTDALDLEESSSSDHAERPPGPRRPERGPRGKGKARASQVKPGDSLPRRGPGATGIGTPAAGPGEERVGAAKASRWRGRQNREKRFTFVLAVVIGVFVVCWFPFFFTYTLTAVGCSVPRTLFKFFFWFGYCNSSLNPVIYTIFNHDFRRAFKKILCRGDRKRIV

hH1 = hH1 (Homo sapiens, UniProt P35367); experiment: Ca Mobilization Agonist (Eurofins-CEREP); conditions: @ 13.3 μM
h5HT2B = h5HT2B (Homo sapiens, UniProt P41595); experiment: Calcium Mobilization Agonist (Eurofins-CEREP); conditions: @ 13.3 μM
hADRα1A = target: T25, hADRα1A (Homo sapiens, UniProt P35348); experiment: Calcium Mobilization Potentiation (Eurofins-CEREP); conditions: @ 10 μM
T25 sequence (P35348 1-466): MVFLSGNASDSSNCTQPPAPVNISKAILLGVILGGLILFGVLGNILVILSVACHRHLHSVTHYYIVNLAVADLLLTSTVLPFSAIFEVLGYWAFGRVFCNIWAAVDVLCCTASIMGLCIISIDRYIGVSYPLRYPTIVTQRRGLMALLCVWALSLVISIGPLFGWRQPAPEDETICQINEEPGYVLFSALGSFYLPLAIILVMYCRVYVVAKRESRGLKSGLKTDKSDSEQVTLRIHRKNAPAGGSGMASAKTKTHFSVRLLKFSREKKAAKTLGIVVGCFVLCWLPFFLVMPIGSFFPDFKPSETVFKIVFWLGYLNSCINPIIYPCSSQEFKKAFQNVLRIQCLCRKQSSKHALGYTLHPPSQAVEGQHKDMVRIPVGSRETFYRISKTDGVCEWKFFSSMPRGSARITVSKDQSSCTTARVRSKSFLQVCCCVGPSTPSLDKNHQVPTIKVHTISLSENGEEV

hM3 = hM3 (Homo sapiens, UniProt P20309); experiment: Calcium Mobilization Potentiation (Eurofins-CEREP); conditions: @ 10 μM

T11 sequence (P21860 20-1342): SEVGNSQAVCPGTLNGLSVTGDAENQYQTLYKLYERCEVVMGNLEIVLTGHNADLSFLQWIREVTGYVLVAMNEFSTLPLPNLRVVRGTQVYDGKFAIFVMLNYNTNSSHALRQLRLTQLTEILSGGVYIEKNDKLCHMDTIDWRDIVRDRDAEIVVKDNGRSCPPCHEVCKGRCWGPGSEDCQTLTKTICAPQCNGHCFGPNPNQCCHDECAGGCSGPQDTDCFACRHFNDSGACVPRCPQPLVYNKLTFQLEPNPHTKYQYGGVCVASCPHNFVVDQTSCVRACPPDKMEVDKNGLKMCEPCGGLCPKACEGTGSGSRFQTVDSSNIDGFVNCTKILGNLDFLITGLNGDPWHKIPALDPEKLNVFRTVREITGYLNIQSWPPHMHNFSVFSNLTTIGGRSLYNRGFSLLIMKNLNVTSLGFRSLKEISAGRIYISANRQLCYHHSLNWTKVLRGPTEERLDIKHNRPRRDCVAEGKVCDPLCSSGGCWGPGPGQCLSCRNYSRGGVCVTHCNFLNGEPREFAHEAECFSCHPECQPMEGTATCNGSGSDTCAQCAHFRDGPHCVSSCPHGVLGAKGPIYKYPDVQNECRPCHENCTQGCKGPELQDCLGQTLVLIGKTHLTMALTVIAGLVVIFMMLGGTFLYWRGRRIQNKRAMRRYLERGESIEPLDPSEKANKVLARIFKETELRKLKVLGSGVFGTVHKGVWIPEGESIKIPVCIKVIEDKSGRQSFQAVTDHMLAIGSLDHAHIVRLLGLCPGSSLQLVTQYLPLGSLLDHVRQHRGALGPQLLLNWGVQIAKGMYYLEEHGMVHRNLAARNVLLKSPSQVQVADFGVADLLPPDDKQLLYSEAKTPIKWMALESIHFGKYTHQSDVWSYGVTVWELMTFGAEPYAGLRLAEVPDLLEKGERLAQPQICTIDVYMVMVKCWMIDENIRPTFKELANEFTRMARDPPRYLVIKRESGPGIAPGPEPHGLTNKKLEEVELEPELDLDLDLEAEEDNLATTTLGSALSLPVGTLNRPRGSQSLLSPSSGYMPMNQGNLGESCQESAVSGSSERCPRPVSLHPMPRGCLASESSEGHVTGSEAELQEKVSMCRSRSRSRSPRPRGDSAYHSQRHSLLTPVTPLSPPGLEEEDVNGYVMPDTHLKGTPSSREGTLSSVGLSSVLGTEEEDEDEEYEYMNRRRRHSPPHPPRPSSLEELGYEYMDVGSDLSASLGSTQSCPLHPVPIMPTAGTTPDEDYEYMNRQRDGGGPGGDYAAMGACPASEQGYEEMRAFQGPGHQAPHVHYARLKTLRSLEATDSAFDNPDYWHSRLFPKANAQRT
T5 sequence (Q9NSY1 whole entry): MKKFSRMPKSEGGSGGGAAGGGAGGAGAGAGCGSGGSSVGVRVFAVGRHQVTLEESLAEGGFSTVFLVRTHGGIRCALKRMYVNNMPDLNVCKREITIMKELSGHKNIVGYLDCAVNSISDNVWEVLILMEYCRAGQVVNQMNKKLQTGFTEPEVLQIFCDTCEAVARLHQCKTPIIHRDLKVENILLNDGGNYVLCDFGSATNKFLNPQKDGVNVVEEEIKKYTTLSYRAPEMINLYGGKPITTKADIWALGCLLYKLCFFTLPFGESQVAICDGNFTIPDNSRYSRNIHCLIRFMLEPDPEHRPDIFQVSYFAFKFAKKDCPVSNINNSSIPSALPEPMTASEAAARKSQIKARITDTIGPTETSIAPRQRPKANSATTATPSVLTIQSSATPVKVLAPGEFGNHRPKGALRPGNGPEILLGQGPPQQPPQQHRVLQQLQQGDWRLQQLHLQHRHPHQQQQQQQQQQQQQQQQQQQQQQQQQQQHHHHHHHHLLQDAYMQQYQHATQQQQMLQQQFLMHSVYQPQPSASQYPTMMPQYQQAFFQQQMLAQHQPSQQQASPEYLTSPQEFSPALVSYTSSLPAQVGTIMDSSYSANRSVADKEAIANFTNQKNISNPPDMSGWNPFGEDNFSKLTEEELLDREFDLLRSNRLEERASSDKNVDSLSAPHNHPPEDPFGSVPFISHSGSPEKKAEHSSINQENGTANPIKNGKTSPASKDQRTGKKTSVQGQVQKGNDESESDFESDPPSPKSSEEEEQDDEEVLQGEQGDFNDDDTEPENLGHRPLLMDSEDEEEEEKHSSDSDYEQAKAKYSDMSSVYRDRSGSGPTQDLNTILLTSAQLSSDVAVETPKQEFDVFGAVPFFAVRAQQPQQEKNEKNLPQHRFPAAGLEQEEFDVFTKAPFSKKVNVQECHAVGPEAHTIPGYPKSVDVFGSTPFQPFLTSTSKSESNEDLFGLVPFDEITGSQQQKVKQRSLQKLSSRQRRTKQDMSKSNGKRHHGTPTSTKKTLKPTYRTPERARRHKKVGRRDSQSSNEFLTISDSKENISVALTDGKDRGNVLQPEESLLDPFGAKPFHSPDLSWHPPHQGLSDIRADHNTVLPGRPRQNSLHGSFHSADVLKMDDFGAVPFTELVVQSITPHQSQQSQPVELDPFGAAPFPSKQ
T4 sequence (P30530 26-894): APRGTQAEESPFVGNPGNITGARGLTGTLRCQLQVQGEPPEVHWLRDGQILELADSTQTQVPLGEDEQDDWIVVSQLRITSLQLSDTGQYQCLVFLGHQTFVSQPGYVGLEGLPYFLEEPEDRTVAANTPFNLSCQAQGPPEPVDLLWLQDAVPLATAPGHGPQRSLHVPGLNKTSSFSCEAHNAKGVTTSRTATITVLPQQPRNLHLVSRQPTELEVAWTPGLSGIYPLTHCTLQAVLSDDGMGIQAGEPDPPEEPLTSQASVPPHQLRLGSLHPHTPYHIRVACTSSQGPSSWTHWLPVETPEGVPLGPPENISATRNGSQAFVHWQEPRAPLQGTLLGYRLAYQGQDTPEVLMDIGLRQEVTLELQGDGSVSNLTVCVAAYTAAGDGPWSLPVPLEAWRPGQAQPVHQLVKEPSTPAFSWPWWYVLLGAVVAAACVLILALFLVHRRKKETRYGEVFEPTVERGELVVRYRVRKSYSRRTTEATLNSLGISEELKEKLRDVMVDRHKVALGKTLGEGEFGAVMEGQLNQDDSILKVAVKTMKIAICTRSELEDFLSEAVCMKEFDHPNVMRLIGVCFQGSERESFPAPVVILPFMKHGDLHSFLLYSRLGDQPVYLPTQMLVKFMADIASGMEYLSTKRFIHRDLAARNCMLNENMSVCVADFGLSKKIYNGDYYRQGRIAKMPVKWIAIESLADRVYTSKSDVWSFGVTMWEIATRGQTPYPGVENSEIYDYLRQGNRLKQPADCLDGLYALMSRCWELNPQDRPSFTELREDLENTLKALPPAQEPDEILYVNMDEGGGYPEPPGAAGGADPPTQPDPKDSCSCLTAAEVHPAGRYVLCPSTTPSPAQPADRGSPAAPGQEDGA
T23 sequence (P10635 whole entry, species assumed): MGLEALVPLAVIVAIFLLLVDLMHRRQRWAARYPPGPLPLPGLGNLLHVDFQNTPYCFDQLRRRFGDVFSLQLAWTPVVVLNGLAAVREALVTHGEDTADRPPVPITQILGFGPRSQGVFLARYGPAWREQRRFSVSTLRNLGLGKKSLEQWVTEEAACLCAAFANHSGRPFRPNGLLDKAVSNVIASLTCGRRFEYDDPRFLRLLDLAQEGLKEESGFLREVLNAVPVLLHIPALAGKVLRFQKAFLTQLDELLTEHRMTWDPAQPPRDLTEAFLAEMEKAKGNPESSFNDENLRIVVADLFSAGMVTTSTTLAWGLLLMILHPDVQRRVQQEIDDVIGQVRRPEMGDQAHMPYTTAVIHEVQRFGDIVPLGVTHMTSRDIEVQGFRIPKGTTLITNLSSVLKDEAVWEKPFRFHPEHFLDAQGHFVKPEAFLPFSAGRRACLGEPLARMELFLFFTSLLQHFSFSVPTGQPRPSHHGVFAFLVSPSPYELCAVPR
T20 sequence (Q02763 23-1124): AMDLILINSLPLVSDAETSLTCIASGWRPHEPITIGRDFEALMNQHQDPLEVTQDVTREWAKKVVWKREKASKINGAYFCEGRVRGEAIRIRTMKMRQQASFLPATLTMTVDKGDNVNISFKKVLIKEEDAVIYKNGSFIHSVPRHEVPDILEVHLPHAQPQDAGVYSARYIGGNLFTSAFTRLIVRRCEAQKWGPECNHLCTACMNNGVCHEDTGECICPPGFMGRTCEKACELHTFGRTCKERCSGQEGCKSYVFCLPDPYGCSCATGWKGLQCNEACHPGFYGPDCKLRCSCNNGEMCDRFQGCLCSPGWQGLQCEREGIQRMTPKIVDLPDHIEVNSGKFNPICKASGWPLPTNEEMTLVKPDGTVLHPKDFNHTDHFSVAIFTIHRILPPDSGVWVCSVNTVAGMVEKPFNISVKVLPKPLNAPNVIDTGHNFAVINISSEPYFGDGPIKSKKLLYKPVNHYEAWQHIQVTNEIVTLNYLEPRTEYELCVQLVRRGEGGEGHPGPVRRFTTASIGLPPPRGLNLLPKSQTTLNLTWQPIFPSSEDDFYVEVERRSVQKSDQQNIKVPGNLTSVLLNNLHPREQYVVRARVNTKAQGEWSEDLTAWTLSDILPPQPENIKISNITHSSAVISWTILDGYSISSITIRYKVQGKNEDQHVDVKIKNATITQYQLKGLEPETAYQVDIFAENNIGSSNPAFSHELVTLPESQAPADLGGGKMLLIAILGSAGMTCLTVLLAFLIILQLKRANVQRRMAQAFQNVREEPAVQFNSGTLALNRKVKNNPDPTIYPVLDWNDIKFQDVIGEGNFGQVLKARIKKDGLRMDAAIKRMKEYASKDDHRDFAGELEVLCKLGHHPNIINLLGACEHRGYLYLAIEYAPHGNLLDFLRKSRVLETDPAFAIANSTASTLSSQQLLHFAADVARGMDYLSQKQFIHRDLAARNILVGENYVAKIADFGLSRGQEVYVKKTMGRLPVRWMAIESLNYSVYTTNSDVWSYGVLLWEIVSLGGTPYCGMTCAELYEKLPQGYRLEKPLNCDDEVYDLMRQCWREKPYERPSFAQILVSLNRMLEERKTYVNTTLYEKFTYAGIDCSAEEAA

Cc1cn(CCN2CCN(c3ccccc3-c3cc(C#N)cc(C(=O)NCCCN4CCCC4)c3)CC2)c2ccccc12 [LLY-507, 3-cyano-5-{2-[4-[2-(3-methylindol-1-yl)ethyl]piperazin-1-yl]-phenyl}-N-[(3-pyrrolidin-1-yl)propyl]benzamide]
pIC50 (hACVR1B): < 4.70
pIC50 (hALK(L1196M)): < 4.70
pIC50 (hASK2): < 4.70
pIC50 (hAXL): < 4.70
pIC50 (hBIKE): < 4.70
pIC50 (hCAMK1): < 4.70
pIC50 (hCSNK1E): < 4.70
pIC50 (hCSNK2A2): < 4.70
pIC50 (hEGFR(G719S)): < 4.70
pIC50 (hEGFR(L747-T751del,Sins)): < 4.70
pIC50 (hEPHA1): < 4.70
pIC50 (hERBB3): < 4.70
pIC50 (hERK5): < 4.70
pIC50 (hGAK): < 4.70
pIC50 (hGRK7): < 4.70
pIC50 (hINSR): < 4.70
pIC50 (hKIT(A829P)): < 4.70
pIC50 (hSBK1): < 4.70
pIC50 (hTAK1): < 4.70
pIC50 (hTAOK2): < 4.70
pIC50 (hTIE2): < 4.70
pIC50 (hWNK3): < 4.70
pIC50 (hPPARδ): < 5.00
% inhibition @ 10 μM (CYP2D6): 61.2%
% Effect, Stimulation (hADRα2A): 0.2%
% Effect, Stimulation (hH1): -2.8%
% Effect, Stimulation (h5HT2B): 3.4%
% Effect, Potentiation (hADRα1A): -7.9%
% Effect, Potentiation (hM3): -18%
